Reference: patent US20240058265A1, “TREATMENT OF OCULAR DISEASES USING ENDOTHELIN RECEPTOR ANTAGONISTS” (Perfuse Therapeutics, Inc., priority 2021, published 2024)

Columns and labels:
[1] = Stability in solid state; format: physicochemical; conditions: 2 h@125° C.
Source text: In the above table, the physicochemical data, e.g., solubility, were obtained following standard protocols known in the field (see, e.g., Reis et al., Mini Rev Med Chem., 2010, 10(11):1071-6; Avdeef et al., Expert Opin Drug Metab Toxicol., 2005, 1(2):325-42; Bharate et al., Comb Chem High Throughput Screen., 2016, 19(6):461-9; and Jain et al., J Pharm Biomed Anal., 2013, 86:11-35.); and the biochemical data, i.e., potency for ETA/ETB, were obtained following the protocols known in the field (see, e.g., Kirkby et al., Br J Pharmacol., 2008, 153(6):1105-19; and Maguire et al., Br J Pharmacol., 2014, 171(24):5555-72.).

[2] = system: ET-1 induced vasospasm; assay: Rabbit ET-1 induced vasospasm model, retinal blood flow (OCT-A, FA); format: in vivo, rabbit (Oryctolagus cuniculus)
Procedure: Adult, male Dutch-belted rabbits were given a 20 μl intravitreal injection (IVT) of 0.5 μg of ET-1 followed by a 20 μl intravitreal injection of 10-100 μg Edonentan given 30 min after the ET-1 administration. IOP, optical coherence tomography—angiography (OCT-A), and fluorescein angiograms (FA) were performed at pre-specified time points (30, 45, 60, and 75 min) following ET-1 and Edonentan administration to assess retinal blood flow changes induced by ET-1+/−Edonentan. […] To evaluate the effect of retinal blood flow following intravitreally administered endothelin-1 (ET-1) followed by the antagonist Edonentan in the rabbit, rabbits (Oryctolagus cuniculus) were given a 20 μL intravitreal injection of ET-1 in the left eye followed by a 20 μL intravitreal injection of Edonentan at 2 (or 3) different doses (e.g. 0.1 μg, 0.5 μg, 2.5 μg). The pulse ox, tonometry, optical coherence tomography angiography (OCTA), fluorescein angiography (FA) and retinal leakage scoring were performed for evaluation.

[3] = system: laser-induced glaucoma eye; assay: Laser-induced glaucoma non-human primate, optic nerve head blood flow (LSFG) after IVT administration; format: in vivo, rhesus macaque, Macaca Mulatta; conditions: IVT 50 μL of 0.02, 0.2 or 2.0 mg/mL, over 6 hours, glaucomatous eye
Procedure: Non-human primates (rhesus macaque, Macaca Mulatta) were obtained for this study. One eye of each animal underwent induction of elevation of intraocular pressure (TOP) by repeated laser photocoagulation of the trabecular meshwork. Imaging sessions were repeated to monitor the optic nerve head (ONH) and retinal structural changes. A study was performed to compare an experimental glaucoma eye and a contralateral healthy eye (control) of three non-human primates in global average mean blur rate (MBR) and MBR change from baseline over time as an index of ONH blood flow in a laser-induced glaucoma model. More specifically, a vehicle control, 0.02 mg/mL of Edonentan, 0.2 mg/mL of Edonentan, or 2.0 mg/mL of Edonentan was intravitreally administered (50 μL) to a glaucomatous eye of each of three non-human primates (rhesus macaque, Macaca Mulatta). These graphs show the ONH blood flow in the three non-human primates after IVT administration of a vehicle alone (FIG. 7A, FIG. 7E, and FIG. 7I), 0.02 mg/mL of Edonentan (FIG. 7B, FIG. 7F, and FIG. 7J), 0.2 mg/mL of Edonentan (FIG. 7C, FIG. 7G, and FIG. 7K) or 2.0 mg/mL of Edonentan (FIG. 7D, FIG. 7H, and FIG. 7L).

[4] = system: laser-induced glaucoma eye; assay: Laser-induced glaucoma non-human primate, intraocular pressure after topical administration; format: in vivo, rhesus macaque, Macaca Mulatta; conditions: 50 μL eyedrop 2 mg/mL
Procedure: Non-human primates (rhesus macaque, Macaca Mulatta) were obtained for this study. One eye of each animal underwent induction of elevation of intraocular pressure (TOP) by repeated laser photocoagulation of the trabecular meshwork. Imaging sessions were repeated to monitor the optic nerve head (ONH) and retinal structural changes. A single dose of 0.5% Timolol or a single dose of 2 mg/mL Edonentan was topically administered to three non-human primates that have laser-induced glaucoma in their right eyes (OD) with 1-week wash-out in a randomized order.

Structure (SMILES): Cc1onc(NS(=O)(=O)c2ccccc2-c2ccc(-c3ncco3)cc2CN(C)C(=O)CC(C)(C)C)c1C [Edonentan, N-[[2′-[[(4,5-dimethyl-3-isoxazolyl)amino]sulfonyl]-4-(2-oxazolyl)[1,1′-biphenyl]-2-yl]methyl]-N,3,3-trimethylbutanamide]
- Stability in Solid State (verdict) [1]: Stable
- Fluorescein dye velocity as an index of retinal blood flow, dose dependence ([2]; 0.1 μg ET-1 and 0.1, 0.5, 2.5 or 10 μg Edonentan IVT (FIG. 8A, 8B)): dose-response
- Effect of ET-1 (retinal vasoconstriction), fluorescein angiography ([2]; 0.5 μg ET-1 IVT, then 10 μg Edonentan IVT, within 90 min (60 min after Edonentan)): reversed
- Fluorescein dye velocity as an index of retinal blood flow ([2]; healthy rabbits, 0.5 μg ET-1 and 10 μg antagonist IVT (FIG. 3)): improved to control levels
- ONH blood flow (mean blur rate, LSFG) [3]: improvement of ONH blood flow in a dose-dependent manner
- IOP reduction from pre-dose to post-dose ([4]; Non-human Primate 1, contralateral healthy eye, 120 minutes): about 10%
- IOP reduction from pre-dose to post-dose ([4]; Non-human Primate 1, experimental glaucoma eye, 120 minutes): about 60%
- IOP reduction from pre-dose to post-dose ([4]; Non-human Primate 2, contralateral healthy eye, 15 minutes): about 20%
- IOP reduction from pre-dose to post-dose ([4]; Non-human Primate 2, contralateral healthy eye, 120 minutes): about 0%
- IOP reduction from pre-dose to post-dose ([4]; Non-human Primate 2, experimental glaucoma eye, 15 minutes): about 50%
- IOP reduction from pre-dose to post-dose ([4]; Non-human Primate 2, experimental glaucoma eye, 120 minutes): about 30%
- IOP reduction from pre-dose to post-dose ([4]; Non-human Primate 3, contralateral healthy eye, 15 minutes): about 10%
- IOP reduction from pre-dose to post-dose ([4]; Non-human Primate 3, contralateral healthy eye, 120 minutes): about 40%
- IOP reduction from pre-dose to post-dose ([4]; Non-human Primate 3, experimental glaucoma eye, 15 minutes): about 40%
- IOP reduction from pre-dose to post-dose ([4]; Non-human Primate 3, experimental glaucoma eye, 120 minutes): about 40%
